Measured values published in the OligoGym collection.
HELM strings list units from the 5' end as sugar, base in round brackets, then linkage (d deoxyribose, r ribose, m 2'-O-methyl, p phosphodiester). Strings are as the collection lists them, not checked against the first reports. ss, as = sense and antisense strand; [una] = unlocked nucleic acid; [s4r] = 4'-thioribose; [fl2r] = 2'-fluoro

Conditions: siRNA
Note: test system not given here.

RNA1{r(G)p.r(G)p.r(A)p.r(C)p.r(A)p.r(U)p.r(U)p.r(C)p.r(A)p.r(G)p.r(A)p.r(A)p.r(C)p.r(A)p.r(A)p.r(G)p.r(A)p.r(A)p.r(A)p.[una](U)p.[una](U)}|RNA2{r(U)p.r(U)p.r(U)p.r(C)p.r(U)p.r(U)p.r(G)p.r(U)p.r(U)p.[una](C)p.r(U)p.r(G)p.r(A)p.r(A)p.r(U)p.r(G)p.r(U)p.r(C)p.r(C)p.[una](U)p.[una](U)}$$$RNA1{StrandType:ss}|RNA2{StrandType:as}$
target mRNA knockdown: 17%

RNA1{r(G)p.r(C)p.[fl2r](U)p.r(G)p.[fl2r](U)p.r(A)p.r(A)p.r(C)p.r(C)p.r(U)p.r(C)p.r(G)p.r(G)p.r(A)p.r(G)p.r(A)p.r(G)p.r(U)p.r(U)p.r(T)p.r(T)}|RNA2{r(A)p.r(A)p.r(C)p.r(U)p.r(C)p.r(U)p.r(C)p.r(C)p.r(G)p.r(A)p.r(G)p.r(G)p.r(U)p.[fl2r](U)p.r(A)p.[fl2r](C)p.r(A)p.r(G)p.r(C)p.r(T)p.r(T)}$$$RNA1{StrandType:ss}|RNA2{StrandType:as}$
target mRNA knockdown: 62%

RNA1{[s4r](C)p.[s4r](G)p.r(U)p.r(A)p.r(C)p.r(G)p.r(C)p.r(G)p.r(G)p.r(A)p.r(A)p.r(U)p.r(A)p.r(C)p.r(U)p.r(U)p.r(C)p.[s4r](G)p.[s4r](A)p.r(T)p.r(T)}|RNA2{r(U)p.r(C)p.r(G)p.r(A)p.r(A)p.r(G)p.r(U)p.r(A)p.r(U)p.r(U)p.r(C)p.r(C)p.r(G)p.r(C)p.r(G)p.r(U)p.r(A)p.[s4r](C)p.[s4r](G)p.r(T)p.r(T)}$$$RNA1{StrandType:ss}|RNA2{StrandType:as}$
target mRNA knockdown: 92.1%

RNA1{d(G)p.d(C)p.d(A)p.d(G)p.d(C)p.d(A)p.d(C)p.d(G)p.d(A)p.d(C)p.d(U)p.d(U)p.d(C)p.d(U)p.d(U)p.d(C)p.d(A)p.d(A)p.d(G)p.r(T)p.r(T)}|RNA2{d(C)p.d(U)p.d(U)p.d(G)p.d(A)p.d(A)p.d(G)p.d(A)p.d(A)p.d(G)p.d(U)p.d(C)p.d(G)p.d(U)p.d(G)p.d(C)p.d(U)p.d(G)p.d(C)p.r(T)p.r(T)}$$$RNA1{StrandType:ss}|RNA2{StrandType:as}$
target mRNA knockdown: 0%

RNA1{r(A)p.r(G)p.[fl2r](U)p.r(A)p.r(A)p.r(U)p.r(C)p.r(C)p.r(G)p.r(G)p.r(A)p.r(C)p.r(U)p.[fl2r](C)p.r(A)p.r(A)p.r(C)p.r(U)p.r(C)p.r(T)p.r(T)}|RNA2{r(G)p.r(A)p.r(G)p.r(U)p.[fl2r](U)p.r(G)p.r(A)p.r(G)p.r(U)p.r(C)p.r(C)p.r(G)p.r(G)p.r(A)p.r(U)p.[fl2r](U)p.r(A)p.r(C)p.r(U)p.r(T)p.r(T)}$$$RNA1{StrandType:ss}|RNA2{StrandType:as}$
target mRNA knockdown: 68%

RNA1{m(A)p.m(A)p.r(U)p.m(A)p.m(A)p.m(G)p.r(C)p.m(A)p.m(G)p.r(C)p.r(U)p.r(C)p.m(G)p.r(C)p.m(G)p.r(C)p.r(U)p.r(C)p.r(C)p.r(T)p.r(T)}|RNA2{r(G)p.r(G)p.r(A)p.r(G)p.r(C)p.r(G)p.r(C)p.r(G)p.r(A)p.r(G)p.r(C)p.r(U)p.r(G)p.r(C)p.r(U)p.r(U)p.r(A)p.r(U)p.r(U)p.r(T)p.r(T)}$$$RNA1{StrandType:ss}|RNA2{StrandType:as}$
target mRNA knockdown: 64%

RNA1{m(A)p.r(U)p.m(C)p.r(A)p.m(G)p.r(A)p.m(G)p.r(G)p.m(G)p.r(A)p.m(G)p.r(G)p.m(U)p.r(C)p.m(U)p.r(U)p.m(A)p.r(G)p.m(A)p.r(T)p.r(T)}|RNA2{r(U)p.r(C)p.r(U)p.r(A)p.r(A)p.m(G)p.r(A)p.r(C)p.r(C)p.r(U)p.r(C)p.r(C)p.r(C)p.r(U)p.m(C)p.r(U)p.m(G)p.r(A)p.m(U)p.r(T)p.r(T)}$$$RNA1{StrandType:ss}|RNA2{StrandType:as}$
target mRNA knockdown: 19%

RNA1{m(A)p.r(U)p.m(C)p.r(U)p.m(A)p.r(C)p.m(C)p.r(C)p.m(A)p.r(G)p.m(C)p.r(U)p.m(C)p.r(U)p.m(C)p.r(C)p.m(C)p.r(U)p.m(U)p.r(T)p.r(T)}|RNA2{r(A)p.r(A)p.r(G)p.r(G)p.r(G)p.r(A)p.r(G)p.r(A)p.r(G)p.r(C)p.m(U)p.r(G)p.r(G)p.r(G)p.m(U)p.r(A)p.r(G)p.r(A)p.m(U)p.r(T)p.r(T)}$$$RNA1{StrandType:ss}|RNA2{StrandType:as}$
target mRNA knockdown: 43%

RNA1{r(A)p.r(G)p.r(A)p.m(U)p.r(G)p.r(U)p.r(U)p.r(C)p.r(U)p.r(C)p.r(G)p.m(U)p.r(A)p.r(A)p.r(G)p.r(G)p.r(A)p.r(C)p.r(G)p.r(T)p.r(T)}|RNA2{r(C)p.r(G)p.r(U)p.r(C)p.r(C)p.r(U)p.m(U)p.r(A)p.r(C)p.r(G)p.r(A)p.r(G)p.r(A)p.r(A)p.m(C)p.r(A)p.r(U)p.r(C)p.r(U)p.r(T)p.r(T)}$$$RNA1{StrandType:ss}|RNA2{StrandType:as}$
target mRNA knockdown: 60%

RNA1{r(C)p.r(G)p.r(C)p.r(C)p.r(C)p.r(C)p.r(C)p.r(C)p.r(U)p.r(C)p.r(A)p.r(A)p.r(G)p.r(C)p.m(U)p.r(A)p.r(C)p.r(C)p.r(G)p.r(T)p.r(T)}|RNA2{r(C)p.r(G)p.r(G)p.m(U)p.r(A)p.r(G)p.r(C)p.r(U)p.r(U)p.r(G)p.r(A)p.r(G)p.r(G)p.r(G)p.r(G)p.r(G)p.r(G)p.r(C)p.r(G)p.r(T)p.r(T)}$$$RNA1{StrandType:ss}|RNA2{StrandType:as}$
target mRNA knockdown: 76%

RNA1{r(G)p.r(A)p.r(A)p.r(A)p.r(C)p.r(U)p.r(G)p.r(G)p.[fl2r](U)p.r(A)p.r(C)p.r(U)p.r(U)p.r(U)p.r(C)p.r(C)p.r(C)p.r(C)p.r(C)p.r(T)p.r(T)}|RNA2{r(G)p.r(G)p.r(G)p.r(G)p.r(G)p.r(A)p.r(A)p.r(A)p.r(G)p.[fl2r](U)p.r(A)p.r(C)p.r(C)p.r(A)p.r(G)p.r(U)p.r(U)p.r(U)p.r(C)p.r(T)p.r(T)}$$$RNA1{StrandType:ss}|RNA2{StrandType:as}$
target mRNA knockdown: 58%

RNA1{r(A)p.r(A)p.m(U)p.r(A)p.r(A)p.r(G)p.m(C)p.r(A)p.r(G)p.r(C)p.r(U)p.r(C)p.r(G)p.r(C)p.r(G)p.r(C)p.r(U)p.r(C)p.r(C)p.r(T)p.r(T)}|RNA2{r(G)p.r(G)p.r(A)p.r(G)p.r(C)p.r(G)p.r(C)p.r(G)p.r(A)p.r(G)p.r(C)p.m(U)p.r(G)p.r(C)p.m(U)p.r(U)p.r(A)p.r(U)p.r(U)p.r(T)p.r(T)}$$$RNA1{StrandType:ss}|RNA2{StrandType:as}$
target mRNA knockdown: 68%

RNA1{r(A)p.r(G)p.r(A)p.r(G)p.r(G)p.r(A)p.r(C)p.r(C)p.m(U)p.r(A)p.r(G)p.r(A)p.r(A)p.r(G)p.r(G)p.r(C)p.r(G)p.r(G)p.r(C)p.r(T)p.r(T)}|RNA2{r(G)p.r(C)p.r(C)p.r(G)p.r(C)p.r(C)p.r(U)p.r(U)p.r(C)p.m(U)p.r(A)p.r(G)p.r(G)p.r(U)p.r(C)p.r(C)p.r(U)p.r(C)p.r(U)p.r(T)p.r(T)}$$$RNA1{StrandType:ss}|RNA2{StrandType:as}$
target mRNA knockdown: 89%

RNA1{r(U)p.r(U)p.r(U)p.[fl2r](C)p.[fl2r](C)p.[fl2r](C)p.[fl2r](C)p.[fl2r](C)p.r(A)p.r(G)p.r(G)p.r(U)p.r(A)p.r(A)p.[fl2r](C)p.r(G)p.r(A)p.r(U)p.r(U)p.r(T)p.r(T)}|RNA2{r(A)p.r(A)p.r(U)p.[fl2r](C)p.r(G)p.r(U)p.r(U)p.[fl2r](A)p.[fl2r](C)p.r(C)p.r(U)p.r(G)p.r(G)p.r(G)p.r(G)p.r(G)p.r(A)p.r(A)p.r(A)p.r(T)p.r(T)}$$$RNA1{StrandType:ss}|RNA2{StrandType:as}$
target mRNA knockdown: 68%

RNA1{r(U)p.[fl2r](U)p.r(A)p.r(C)p.r(C)p.r(C)p.r(C)p.r(G)p.r(A)p.r(U)p.r(U)p.[fl2r](C)p.r(A)p.r(G)p.r(C)p.r(C)p.r(U)p.r(C)p.r(U)p.r(T)p.r(T)}|RNA2{r(A)p.r(G)p.r(A)p.r(G)p.r(G)p.r(C)p.[fl2r](U)p.r(G)p.r(A)p.r(A)p.r(U)p.r(C)p.r(G)p.r(G)p.r(G)p.r(G)p.[fl2r](U)p.r(A)p.r(A)p.r(T)p.r(T)}$$$RNA1{StrandType:ss}|RNA2{StrandType:as}$
target mRNA knockdown: 82%

RNA1{r(A)p.r(G)p.r(A)p.r(G)p.r(U)p.m(U)p.r(G)p.r(G)p.r(G)p.r(A)p.r(U)p.m(U)p.r(A)p.r(G)p.r(G)p.r(G)p.r(C)p.r(U)p.r(U)p.r(T)p.r(T)}|RNA2{r(A)p.r(A)p.r(G)p.r(C)p.r(C)p.r(C)p.m(U)p.r(A)p.r(A)p.r(U)p.r(C)p.r(C)p.m(C)p.r(A)p.r(A)p.r(C)p.r(U)p.r(C)p.r(U)p.r(T)p.r(T)}$$$RNA1{StrandType:ss}|RNA2{StrandType:as}$
target mRNA knockdown: 68%

RNA1{r(A)p.r(A)p.r(G)p.r(G)p.m(C)p.r(A)p.r(U)p.r(G)p.r(C)p.r(U)p.r(U)p.r(C)p.r(G)p.r(G)p.r(A)p.r(A)p.r(A)p.r(C)p.r(U)p.r(T)p.r(T)}|RNA2{r(A)p.r(G)p.r(U)p.r(U)p.r(U)p.r(C)p.r(C)p.r(G)p.r(A)p.r(A)p.r(G)p.m(C)p.r(A)p.r(U)p.r(G)p.r(C)p.r(C)p.r(U)p.r(U)p.r(T)p.r(T)}$$$RNA1{StrandType:ss}|RNA2{StrandType:as}$
target mRNA knockdown: 95%

RNA1{r(G)p.r(G)p.r(A)p.r(C)p.r(A)p.r(U)p.r(U)p.r(C)p.r(A)p.r(G)p.r(A)p.r(A)p.r(C)p.r(A)p.r(A)p.r(G)p.r(A)p.r(A)p.r(A)p.[una](U)p.[una](U)}|RNA2{r(U)p.[una](U)p.r(U)p.r(C)p.r(U)p.r(U)p.r(G)p.r(U)p.r(U)p.r(C)p.r(U)p.r(G)p.r(A)p.r(A)p.r(U)p.r(G)p.r(U)p.r(C)p.r(C)p.[una](U)p.[una](U)}$$$RNA1{StrandType:ss}|RNA2{StrandType:as}$
target mRNA knockdown: 36%

RNA1{r(G)p.r(A)p.r(A)p.r(G)p.r(A)p.r(G)p.r(C)p.r(C)p.r(U)p.r(A)p.m(C)p.r(A)p.m(C)p.r(A)p.r(A)p.r(C)p.r(C)p.r(C)p.r(U)p.r(T)p.r(T)}|RNA2{r(A)p.r(G)p.r(G)p.r(G)p.r(U)p.m(U)p.r(G)p.r(U)p.r(G)p.m(U)p.r(A)p.r(G)p.r(G)p.r(C)p.r(U)p.r(C)p.r(U)p.r(U)p.r(C)p.r(T)p.r(T)}$$$RNA1{StrandType:ss}|RNA2{StrandType:as}$
target mRNA knockdown: 74%

RNA1{[fl2r](G)p.r(C)p.[fl2r](U)p.r(A)p.[fl2r](C)p.r(C)p.[fl2r](G)p.r(C)p.[fl2r](A)p.r(A)p.[fl2r](C)p.r(C)p.[fl2r](A)p.r(C)p.[fl2r](G)p.r(A)p.[fl2r](G)p.r(C)p.[fl2r](U)p.r(T)p.r(T)}|RNA2{r(A)p.r(G)p.r(C)p.r(U)p.r(C)p.r(G)p.r(U)p.r(G)p.r(G)p.r(U)p.r(U)p.r(G)p.r(C)p.r(G)p.r(G)p.r(U)p.r(A)p.r(G)p.r(C)p.r(T)p.r(T)}$$$RNA1{StrandType:ss}|RNA2{StrandType:as}$
target mRNA knockdown: 21%
